Earlier results as cited in PMC4832308 (Cancer, 2015).

Columns and labels:
patients [1] = details: phase 1 study, cited from earlier work
patients [2] = details: phase 1 study; cited from earlier work

Compound | patients with a response (patients [1]; MM) [patient] | response rate (patients [1]; MM) [%] | response duration (patients [1]; patient with MM) [months] | patients with SD (patients [1]) [patients] | best response SD rate (patients [2]) [%] | patients with best response SD (patients [2]) [patients]
CC(C)n1nc(-c2ccc3oc(N)nc3c2)c2c(N)ncnc21 [MLN0128] | 1 | 4 | ~2 | 15 |  | 
COc1ccc(-c2ccc3c(N4CCOC[C@@H]4C)nc(N4CCOC[C@@H]4C)nc3n2)cc1CO [AZD8055] |  |  |  |  | 14.3 | 7
